Source: patent publication US20230242582A1, “NOVEL ALPHA-HELICAL DOUBLE-SIDED CELL PENETRATING PEPTIDE AND USE THEREOF” (CAMP THERAPEUTICS INC., priority 2020, published 2023)
Positions of bridges follow the written chain, without caps; N, C: chain ends. Non-standard residues stand in square brackets, D forms with d. Residues, ends and D or L forms follow the SMILES beside them. Chains are numbered I, II in the order given. tBuAla = CC(C)(C)C[C@H](N)C(=O)O

Tested on: HeLa cells
Experiment: Cytotoxicity of dimeric peptides, WST-1 assay
Assay type: cell-based, human
Conditions: for ratio: IC50 relative to LK-3, HeLa cells
Description: Cytotoxicity was identified using WST-1 assay by treating HeLa cells with peptides in a 96-well plate (1×10^4 cells/well) for 24 hours.
Specifically, HeLa cells were cultured in DMEM at a condition of 37° C. with 5% CO2. The cells were respectively cultured in a cell culture plate, and then removed with trypsin. The cells were seeded at 1×10^4 cells per well in a 96-well plate. After 24 hours, the peptide was added to the media, and culture was performed again at a condition of 37° C. with 5% CO2 for 24 hours. 10 uL of WST-1 reagent was added per well, and reaction was allowed to proceed for 30 minutes at a condition of 37° C. with 5% CO2. Then, UV absorbance was measured at 450/700 nm with a 96-well plate reader.

Compound	toxicity (even at 40 μM, data not shown)	ratio
diLH10: dimer of monomer LH10, AC-LCHLLHHLCH-NH2 (SEQ ID NO 14) (Ac-LCHLLHHLCH-NH2; also: dimer of two monomers linked by interchain disulfide bonds)	no toxicity was observed	
CC(=O)N[C@@H](CC(C)(C)C)C(=O)N[C@H]1CSSC[C@@H](C(=O)N[C@@H](CCCNC(=N)N)C(N)=O)NC(=O)[C@H](CC(C)(C)C)NC(=O)[C@H](CCCNC(=N)N)NC(=O)[C@H](CCCNC(=N)N)NC(=O)[C@H](CC(C)(C)C)NC(=O)[C@H](CC(C)(C)C)NC(=O)[C@H](CCCNC(=N)N)NC(=O)[C@@H](NC(=O)[C@H](CC(C)(C)C)NC(C)=O)CSSC[C@@H](C(=O)N[C@@H](CCCNC(=N)N)C(N)=O)NC(=O)[C@H](CC(C)(C)C)NC(=O)[C@H](CCCNC(=N)N)NC(=O)[C@H](CCCNC(=N)N)NC(=O)[C@H](CC(C)(C)C)NC(=O)[C@H](CC(C)(C)C)NC(=O)[C@H](CCCNC(=N)N)NC1=O [diL*R10] (I: Ac-[tBuAla]CR[tBuAla][tBuAla]RR[tBuAla]CR-NH2 / II: Ac-[tBuAla]CR[tBuAla][tBuAla]RR[tBuAla]CR-NH2; disulfide I:2-II:9, I:9-II:2 (inferred))		3.11
CC(=O)N[C@@H](Cc1ccccc1)C(=O)N[C@H]1CSSC[C@@H](C(=O)N[C@@H](CCCCN)C(N)=O)NC(=O)[C@H](Cc2ccccc2)NC(=O)[C@H](CCCCN)NC(=O)[C@H](CCCCN)NC(=O)[C@H](Cc2ccccc2)NC(=O)[C@H](Cc2ccccc2)NC(=O)[C@H](CCCCN)NC(=O)[C@@H](NC(=O)[C@H](Cc2ccccc2)NC(C)=O)CSSC[C@@H](C(=O)N[C@@H](CCCCN)C(N)=O)NC(=O)[C@H](Cc2ccccc2)NC(=O)[C@H](CCCCN)NC(=O)[C@H](CCCCN)NC(=O)[C@H](Cc2ccccc2)NC(=O)[C@H](Cc2ccccc2)NC(=O)[C@H](CCCCN)NC1=O [diFK10] (HELM PEPTIDE1{[ac].F.C.K.F.F.K.K.F.C.K.[am]}|PEPTIDE2{[ac].F.C.K.F.F.K.K.F.C.K.[am]}$PEPTIDE1,PEPTIDE2,3:R3-10:R3|PEPTIDE1,PEPTIDE2,10:R3-3:R3$$$V2.0; bridges inferred)		2.11
CC(=O)N[C@@H](CC(C)(C)C)C(=O)N[C@H]1CSSC[C@@H](C(=O)N[C@@H](CCCCN)C(N)=O)NC(=O)[C@H](CC(C)(C)C)NC(=O)[C@H](CCCCN)NC(=O)[C@H](CCCCN)NC(=O)[C@H](CC(C)(C)C)NC(=O)[C@H](CC(C)(C)C)NC(=O)[C@H](CCCCN)NC(=O)[C@@H](NC(=O)[C@H](CC(C)(C)C)NC(C)=O)CSSC[C@@H](C(=O)N[C@@H](CCCCN)C(N)=O)NC(=O)[C@H](CC(C)(C)C)NC(=O)[C@H](CCCCN)NC(=O)[C@H](CCCCN)NC(=O)[C@H](CC(C)(C)C)NC(=O)[C@H](CC(C)(C)C)NC(=O)[C@H](CCCCN)NC1=O [diL*K10] (I: Ac-[tBuAla]CK[tBuAla][tBuAla]KK[tBuAla]CK-NH2 / II: Ac-[tBuAla]CK[tBuAla][tBuAla]KK[tBuAla]CK-NH2; disulfide I:2-II:9, I:9-II:2 (inferred))		2.32
CC[C@H](C)[C@H](NC(C)=O)C(=O)N[C@H]1CSSC[C@@H](C(=O)N[C@@H](CCCCN)C(N)=O)NC(=O)[C@H]([C@@H](C)CC)NC(=O)[C@H](CCCCN)NC(=O)[C@H](CCCCN)NC(=O)[C@H]([C@@H](C)CC)NC(=O)[C@H]([C@@H](C)CC)NC(=O)[C@H](CCCCN)NC(=O)[C@@H](NC(=O)[C@@H](NC(C)=O)[C@@H](C)CC)CSSC[C@@H](C(=O)N[C@@H](CCCCN)C(N)=O)NC(=O)[C@H]([C@@H](C)CC)NC(=O)[C@H](CCCCN)NC(=O)[C@H](CCCCN)NC(=O)[C@H]([C@@H](C)CC)NC(=O)[C@H]([C@@H](C)CC)NC(=O)[C@H](CCCCN)NC1=O [diIK10] (HELM PEPTIDE1{[ac].I.C.K.I.I.K.K.I.C.K.[am]}|PEPTIDE2{[ac].I.C.K.I.I.K.K.I.C.K.[am]}$PEPTIDE1,PEPTIDE2,3:R3-10:R3|PEPTIDE1,PEPTIDE2,10:R3-3:R3$$$V2.0; bridges inferred)		2.57
